In PubChem BioAssay AID264 (DTP/NCI, 2004):
Values joined by “and” are separate entries in the source; they are usually repeats but may differ in a detail not shown here. Equal values may be shown once. Results filed as inconclusive are left out. Bridge positions count the residues as written; N and C are the ends. Square brackets hold non-standard residues; d marks the D form. Peptide text beside a SMILES is read from it. I, II: the chains in the order shown. * marks the point of attachment. Quinoxaline2carbonyl = O=C(c1cnc2ccccc2n1)*; NMeV = CN[CH](C(=O)O)C(C)C; NMeC = CN[CH](CS)C(=O)O

Tested on: nude mice, LX-1 lung xenograft intrarenal, tumor weight T/C
Assay: NCI In Vivo Anticancer Drug Screen. Data for tumor model Human Lung LX-1 Xenograft (intrarenal inoculation) in NU/NU Swiss (nude) mice
Settings: endpoint: mean tumor weight change, higher = larger tumour
Method in brief: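 In vivo, transplantable tumor; compound vs vehicle arms; tumor size measured; value = T/C.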

[1] = dose: 300.0 mg/kg/injection, schedule: Q04DX003 (sc), vehicle: saline with Tween-80
[2] = dose: 600.0 mg/kg/injection, schedule: Q04DX003 (sc), vehicle: saline with Tween-80
[3] = dose: 1200.0 mg/kg/injection, schedule: Q04DX003 (sc), vehicle: saline with Tween-80
[4] = dose: 2400.0 mg/kg/injection, schedule: Q04DX003 (sc), vehicle: saline with Tween-80
[5] = dose: 12.5 mg/kg/injection, schedule: Q01DX010 (sc), vehicle: saline
[6] = dose: 25.0 mg/kg/injection, schedule: Q01DX010 (sc), vehicle: saline
[7] = dose: 300.0 mg/kg/injection, schedule: Q04DX003 (sc), vehicle: Klucel (hydroxypropylcellulose) (HPC)
[8] = dose: 600.0 mg/kg/injection, schedule: Q04DX003 (sc), vehicle: Klucel (hydroxypropylcellulose) (HPC)
[9] = dose: 1200.0 mg/kg/injection, schedule: Q04DX003 (sc), vehicle: Klucel (hydroxypropylcellulose) (HPC)
[10] = dose: 2400.0 mg/kg/injection, schedule: Q04DX003 (sc), vehicle: Klucel (hydroxypropylcellulose) (HPC)
[11] = dose: 200.0 mg/kg/injection, schedule: Q01DX010 (sc), vehicle: saline with Tween-80
[12] = dose: 400.0 mg/kg/injection, schedule: Q01DX010 (sc), vehicle: saline with Tween-80
[13] = dose: 800.0 mg/kg/injection, schedule: Q01DX010 (sc), vehicle: saline with Tween-80

With `CCCCCCOC(CN(C)C)C(Cl)(Cl)Cl` (configuration not stated) the T/C (dose: 200.0 mg/kg/injection, schedule: Q04DX003 (sc), vehicle: saline with Tween-80) was 121 % of control, the T/C (dose: 400.0 mg/kg/injection, schedule: Q04DX003 (sc), vehicle: saline with Tween-80) was 95 % of control and the T/C (dose: 800.0 mg/kg/injection, schedule: Q04DX003 (sc), vehicle: saline with Tween-80) was 59 % of control. The T/C (dose: 1600.0 mg/kg/injection, schedule: Q04DX003 (sc), vehicle: saline with Tween-80) was 74 % of control.
For `Nc1nc(-c2ccccc2)c(Br)c(=O)[nH]1`, the T/C [1] was 77 % of control, the T/C [2] was 69 % of control and the T/C [3] was 54 % of control. For the same compound, the T/C [4] was 66 % of control.
`N=C1CCCS1` was tested, and the T/C (dose: 18.75 mg/kg/injection, schedule: Q04DX003 (sc), vehicle: saline) was 121 % of control, the T/C (dose: 37.5 mg/kg/injection, schedule: Q04DX003 (sc), vehicle: saline) was 87 % of control and the T/C (dose: 75.0 mg/kg/injection, schedule: Q04DX003 (sc), vehicle: saline) was 113 % of control.
`O=[N+]([O-])c1ccc(-n2[nH]nnc2=S)cc1` was tested, and the T/C (dose: 50.0 mg/kg/injection, schedule: Q04DX003 (sc), vehicle: Klucel (hydroxypropylcellulose) (HPC)) was 92 % of control, the T/C (dose: 100.0 mg/kg/injection, schedule: Q04DX003 (sc), vehicle: Klucel (hydroxypropylcellulose) (HPC)) was 84 % of control and the T/C (dose: 200.0 mg/kg/injection, schedule: Q04DX003 (sc), vehicle: Klucel (hydroxypropylcellulose) (HPC)) was 95 % of control. For the same compound, the T/C (dose: 400.0 mg/kg/injection, schedule: Q04DX003 (sc), vehicle: Klucel (hydroxypropylcellulose) (HPC)) was 59 % of control.
For `COc1cccc2c1C(=O)c1c(O)c3c(c(O)c1C2=O)C[C@H](O)C[C@@H]3OC1CC(N)C(O)C(C)O1` (some centres not stated), the T/C (dose: 6.25 mg/kg/injection, schedule: Q01DX010 (sc), vehicle: saline) was 25 % of control, the T/C [5] was 336 % of control and the T/C [6] was 101 % of control.
In the case of `Cc1ccc(S(=O)(=O)OCOS(=O)(=O)c2ccc(C)cc2)cc1`, the T/C [7] is reported as 79 % of control, the T/C [8] is reported as 95 % of control and the T/C [9] is reported as 74 % of control. For the same compound, the T/C [10] was 100 % of control.
With `O=c1ncccn1[C@@H]1O[C@H](CO)[C@H](O)C1O` (some centres not stated) the T/C (dose: 300.0 mg/kg/injection, schedule: Q04DX003 (sc), vehicle: saline) was 100 % of control, the T/C (dose: 600.0 mg/kg/injection, schedule: Q04DX003 (sc), vehicle: saline) was 56 % of control and the T/C (dose: 1200.0 mg/kg/injection, schedule: Q04DX003 (sc), vehicle: saline) was 55 % of control. For the same compound, the T/C (dose: 2400.0 mg/kg/injection, schedule: Q04DX003 (sc), vehicle: saline) was 47 % of control.
`CCC1(O)CC2CN(CCc3c([nH]c4ccccc34)C(C(=O)OC)(c3cc4c(cc3OC)N(C)C3C(O)(C(=O)NCCSSCCNC(=O)C5(O)C(O)C6(CC)C=CCN7CCC8(c9cc(C%10(C(=O)OC)CC%11CN(CCc%12c%10[nH]c%10ccccc%12%10)CC(O)(CC)C%11)c(OC)cc9N(C)C58)C76)C(O)C5(CC)C=CCN6CCC43C65)C2)C1` (configuration not stated) was tested, and the T/C (dose: 0.75 mg/kg/injection, schedule: Q04DX003 (sc), vehicle: saline) was 46 % of control, the T/C (dose: 1.5 mg/kg/injection, schedule: Q04DX003 (sc), vehicle: saline) was 23 % of control and 46 % of control and the T/C (dose: 1.5 mg/kg/injection, schedule: Q04DX003 (sc), vehicle: suspension in saline) was 105 % of control. For the same compound, the T/C (dose: 6.0 mg/kg/injection, schedule: Q04DX003 (sc), vehicle: suspension in saline) was 81 % of control, the T/C (dose: 12.0 mg/kg/injection, schedule: Q04DX003 (sc), vehicle: saline) was 88 % of control and the T/C (dose: 12.0 mg/kg/injection, schedule: Q04DX003 (sc), vehicle: suspension in saline) was 65 % of control.
`Cc1ccccc1SSc1ccccc1C` was tested, and the T/C [11] was 268 % of control and the T/C [12] was 99 % of control.
With `CO[C@H]1C[C@@H]2CC[C@@H](C)[C@@](O)(O2)C(=O)C(=O)N2CCCC[C@H]2C(=O)O[C@H]([C@H](C)C[C@@H]2CC[C@@H](O)[C@H](OC)C2)CC(=O)[C@H](C)C=C(C)[C@@H](O)[C@@H](OC)C(=O)[C@H](C)C[C@H](C)/C=C/C=C/C=C1C` the T/C (dose: 100.0 mg/kg/injection, schedule: Q01DX010 (sc), vehicle: saline with Tween-80) was 72 % of control, the T/C [11] was 47 % of control and the T/C [12] was 37 % of control. For the same compound, the T/C [13] was 69 % of control.
For `COc1cc(C(=O)N/N=C/c2cccc([N+](=O)[O-])c2)cc(OC)c1OC`, the T/C (dose: 150.0 mg/kg/injection, schedule: Q04DX003 (sc), vehicle: saline with Tween-80) was 86 % of control.
For `NS(=O)(=O)OCCCCCCCOS(N)(=O)=O`, the T/C (dose: 150.0 mg/kg/injection, schedule: Q04DX003 (ip), vehicle: saline with Tween-80) was 109 % of control and the T/C (dose: 300.0 mg/kg/injection, schedule: Q04DX003 (ip), vehicle: saline with Tween-80) was 123 % of control.
`[I][Hg][CH2]C1OCCOC1[CH2][Hg][I]` (configuration not stated) was tested, and the T/C (dose: 150.0 mg/kg/injection, schedule: Q04DX003 (sc), vehicle: Klucel (hydroxypropylcellulose) (HPC)) was 88 % of control, the T/C [7] was 74 % of control and the T/C [8] was 79 % of control. The T/C [9] was 64 % of control.
In the case of `CN(C1=NS(=O)(=O)N=C(N(C)c2ccccc2)O1)c1ccccc1`, the T/C [7] is reported as 66 % of control, the T/C [8] is reported as 61 % of control and the T/C [9] is reported as 79 % of control. The T/C [10] was 91 % of control.
In the case of `O=C(C/C(=N\C(=S)Nc1cc(C(F)(F)F)ccc1Cl)NO)N1CCCC1`, the T/C [1] is reported as 70 % of control, the T/C [2] is reported as 120 % of control and the T/C [3] is reported as 104 % of control. For the same compound, the T/C [4] was 106 % of control.
For `Oc1cc2c3c(c1)c1cc4c(cc1c[n+]3CC2)OCO4`, the T/C (dose: 25.0 mg/kg/injection, schedule: Q04DX003 (sc), vehicle: water) was 102 % of control, the T/C (dose: 50.0 mg/kg/injection, schedule: Q04DX003 (sc), vehicle: water) was 124 % of control and the T/C (dose: 100.0 mg/kg/injection, schedule: Q04DX003 (sc), vehicle: water) was 93 % of control. For the same compound, the T/C (dose: 200.0 mg/kg/injection, schedule: Q04DX003 (sc), vehicle: water) was 103 % of control.
For `CN(C)N=Nc1ccccc1`, the T/C (dose: 12.5 mg/kg/injection, schedule: Q01DX010 (sc), vehicle: Klucel (hydroxypropylcellulose) (HPC)) was 12 % of control and the T/C (dose: 50.0 mg/kg/injection, schedule: Q01DX010 (sc), vehicle: Klucel (hydroxypropylcellulose) (HPC)) was -98 % of control.
For `O=c1n(CC2CO2)c(=O)n(CC2CO2)n1CC1CO1` (configuration not stated), the T/C (dose: 12.5 mg/kg/injection, schedule: Q04DX003 (sc), vehicle: saline) was 74 % of control and the T/C (dose: 25.0 mg/kg/injection, schedule: Q04DX003 (sc), vehicle: saline) was 77 % of control.
In the case of `O=Cc1ccc(C(Cl)(Cl)Cl)cc1`, the T/C (dose: 50.0 mg/kg/injection, schedule: Q01DX010 (sc), vehicle: saline with Tween-80) is reported as 176 % of control, the T/C [11] is reported as 179 % of control and the T/C [13] is reported as 77 % of control.
For `CC1NC(=O)C(NC(=O)c2cnc3ccccc3n2)COC(=O)C(C(C)C)N(C)C(=O)C2CSSCC(C(=O)N(C)C(C(C)C)C(=O)OCC(NC(=O)c3cnc4ccccc4n3)C(=O)NC(C)C(=O)N2C)N(C)C1=O` (configuration not stated) (I: Quinoxaline2carbonyl-SA[NMeC][NMeV] / II: Quinoxaline2carbonyl-SA[NMeC][NMeV]; ester I:1-II:C, I:C-II:1; disulfide I:3-II:3; configuration not given here), the T/C (dose: 100.0 micrograms/kg/injection, schedule: Q04DX003 (sc), vehicle: Klucel (hydroxypropylcellulose) (HPC)) was 104 % of control, the T/C (dose: 200.0 micrograms/kg/injection, schedule: Q04DX003 (sc), vehicle: Klucel (hydroxypropylcellulose) (HPC)) was 83 % of control and the T/C (dose: 400.0 micrograms/kg/injection, schedule: Q04DX003 (sc), vehicle: Klucel (hydroxypropylcellulose) (HPC)) was 54 % of control.
With `C[N+](C)(C)c1ncnc2c1ncn2C1CCCO1` (configuration not stated) the T/C (dose: 0.25 mg/kg/injection, schedule: Q01DX010 (sc), vehicle: saline) was 65 % of control, the T/C (dose: 1.0 mg/kg/injection, schedule: Q01DX010 (sc), vehicle: saline) was 106 % of control and the T/C (dose: 2.0 mg/kg/injection, schedule: Q01DX010 (sc), vehicle: saline) was 94 % of control. For the same compound, the T/C [5] was 176 % of control and the T/C [6] was 120 % of control.
